Assay results published in patent US11214803B2, “Modulators of YAP1 expression” (Ionis Pharmaceuticals, Inc., priority 2019, dated 2022).
Strand notation (5' to 3'): a small letter for the sugar, then the base; units joined by * are phosphorothioate-linked, units joined directly phosphodiester-linked; [ ] holds rarer units or linkages, { } end groups; capitals alone tell only the bases. e = 2'-O-(2-methoxyethyl) (MOE); k = constrained ethyl (cEt); [5mC] = 5-methylcytosine; d = 2'-deoxy (DNA)

How the values were obtained:
Assay type in all cases: cell-based
Yap1 mRNA [1] = assay: Antisense inhibition of human Yap1 in A-431 cells by cEt gapmers, single dose (Example 3, RTS36584)
Method: Modified oligonucleotides were designed to target a Yap1 nucleic acid and were tested for their effect on Yap1 mRNA level in vitro. The modified oligonucleotides were tested in a series of experiments that had similar culture conditions. Cultured A-431 cells at a density of 5,000 cells per well were treated using free uptake with 2,000 nM of modified oligonucleotide. After a treatment period of approximately 48 hours, RNA was isolated from the cells and Yap1 mRNA levels were measured by quantitative real-time RTPCR. Human primer probe set RTS36584 (forward sequence […], designated herein as SEQ ID NO.: 14; reverse sequence […], designated herein as SEQ ID NO.: 15; probe sequence […], designated herein as SEQ ID NO.: 16) was used to measure mRNA levels. Yap1 mRNA levels were normalized to total RNA content, as measured by RIBOGREEN®. Results are presented in the tables below as percent control of the amount of Yap1 mRNA relative to untreated control cells (% UTC). The modified oligonucleotides with percent control values marked with an asterisk (*) target the amplicon region of the primer probe set. Additional assays may be used to measure the potency and efficacy of the modified oligonucleotides targeting the amplicon region.
The newly designed modified oligonucleotides in the Tables below were designed as 3-10-3 cEt gapmers. The gapmers are 16 nucleosides in length, wherein the central gap segment comprises of ten 2′-deoxynucleosides and is flanked by wing segments on the 5′ direction and the 3′ direction comprising three nucleosides each. Each nucleoside in the 5′ wing segment and each nucleoside in the 3′ wing segment has a cEt sugar modification. The internucleoside linkages throughout each gapmer are phosphorothioate (P═S) linkages. All cytosine residues throughout each gapmer are 5-methylcytosines.
“Start site” indicates the 5′-most nucleoside to which the gapmer is targeted in the human gene sequence. “Stop site” indicates the 3′-most nucleoside to which the gapmer is targeted human gene sequence. […] Activity of the modified oligonucleotide may be defined in a different experiment.

Yap1 mRNA [2] = assay: Antisense inhibition of human Yap1 in SNU-449 cells by modified oligonucleotides, single dose (Example 5, RTS36584)
Outline: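 SNU-449 cells (10,000/well) took up 2,000 nM oligonucleotide by free uptake for about 48 h. Yap1 mRNA was measured by qRT-PCR with primer probe set RTS36584 and normalised to RIBOGREEN total RNA. Values are % of untreated control; asterisked oligos target the amplicon region.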

Yap1 mRNA [3] = assay: Antisense inhibition of human Yap1 in A-431 cells by cEt gapmers, single dose (Example 2, RTS4814)
Outline: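 A-431 cells (5,000/well) received 2,000 nM oligonucleotide by free uptake for about 48 h. Yap1 mRNA was then quantified by RT-qPCR with primer probe set RTS4814, normalized to RIBOGREEN total RNA, and reported as % of untreated control; asterisked values mark oligos inside the amplicon.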

[4] = Table 35, Yap1 mRNA as percent of untreated control, 3-10-3 cEt gapmers targeting SEQ ID NO: 1 and 2, single dose
[5] = Table 9, A-431 cells, 5,000 cells per well, free uptake, 2,000 nM, approximately 48 hours, RTS36584, normalized to RIBOGREEN, Yap1 mRNA relative to untreated control cells
[6] = Yap1 mRNA, percent of untreated control, modified oligonucleotides targeting SEQ ID NO: 1 and 2, Table 47
[7] = Table 48, Yap1 mRNA level relative to untreated control, modified oligonucleotides targeting SEQ ID NO.: 1 and 2
[8] = Table 22, Yap1 mRNA as percent of untreated control, 3-10-3 cEt gapmers, single dose

1075541 (kG*k[5mC]*kT*d[5mC]*dA*dA*dA*dA*d[5mC]*dT*dG*dA*d[5mC]*kA*kT*kA; antisense) [compound 1075541]
YAP1 (% UTC) (Yap1 mRNA [1]; [4]): 47 % UTC

1074542 (kA*kG*kG*d[5mC]*dA*d[5mC]*dT*dA*dT*d[5mC]*d[5mC]*dA*d[5mC]*kA*kG*kT; antisense) [compound 1074542]
YAP1 (% UTC) (Yap1 mRNA [1]; Table 28, Yap1 mRNA as percent of untreated control, 3-10-3 cEt gapmers targeting SEQ ID NO.: 1, and 2): 21 % UTC

958671 (k[5mC]*kA*kT*dT*dA*dT*dA*dT*dG*dG*d[5mC]*dA*d[5mC]*k[5mC]*k[5mC]*kA; antisense) [Compound 958671]
YAP1 (% UTC) (Yap1 mRNA [1]; [5]): 19 % UTC

958669 (kG*k[5mC]*kT*dA*dT*d[5mC]*dT*dT*dT*dG*dG*dA*dT*k[5mC]*k[5mC]*kA; antisense) [Compound 958669]
YAP1 (% UTC) (Yap1 mRNA [1]; Table 12, A-431 cells, 5,000 cells per well, free uptake, 2,000 nM modified oligonucleotide, approx. 48 hours, RTS36584, normalized to RIBOGREEN, Yap1 mRNA relative to untreated control cells): 76 % UTC

958481 (antisense kG*k[5mC]*kA*dA*d[5mC]*dT*dG*dG*d[5mC]*dT*dT*dA*dT*kG*kG*kA) [Compound 958481]
YAP1 (% UTC) (Yap1 mRNA [1]; [5]): 6 % UTC

1075861 (antisense kT*kA*kA*d[5mC]*dT*dA*dT*dA*dA*dG*d[5mC]*dT*dA*kT*kG*kT) [compound 1075861]
YAP1 (% UTC) (Yap1 mRNA [1]; [4]): 78 % UTC

716444 (kA*kA*kA*dT*dT*dG*dT*d[5mC]*dT*d[5mC]*dA*dT*dG*k[5mC]*k[5mC]*kT) [Compound 716444]
YAP1 (% UT) (Yap1 mRNA [2]; [6]): 46 % UT
YAP1 (% UTC) (Yap1 mRNA [3]; Table 6, A-431 cells, 5,000 cells per well, free uptake, 2,000 nM modified oligonucleotide, approx. 48 hours, RTS4814, normalized to RIBOGREEN, Yap1 mRNA relative to untreated control cells): 40 % UTC

1074756 (kG*k[5mC]*kA*d[5mC]*dT*dT*dT*dT*dA*d[5mC]*dA*dT*dT*kA*kG*kG) [Compound 1074756]
YAP1 (% UT) (Yap1 mRNA [2]; [6]): 8 % UT
YAP1 (% UTC) (Yap1 mRNA [3]; Table 18, A-431 cells, 5,000 cells per well, free uptake, 2,000 nM modified oligonucleotide, approx. 48 hours, RTS4814, normalized to RIBOGREEN, Yap1 mRNA as percent of untreated control): 3 % UTC

1076456 (antisense k[5mC]*kT*kT*dT*dA*dA*dA*dG*dT*dG*dT*dA*dT*kG*kT*k[5mC]) [Compound 1076456]
YAP1 (% UT) (Yap1 mRNA [2]; [7]): 44 % UT
YAP1 (% UTC) (Yap1 mRNA [3]; [8]): 2 % UTC

1074727 (antisense kG*kA*kG*dG*dT*dA*dT*dA*dA*d[5mC]*dT*dG*dG*kG*k[5mC]*kA) [Compound 1074727]
YAP1 (% UT) (Yap1 mRNA [2]; [7]): 51 % UT
YAP1 (% UTC) (Yap1 mRNA [3]; Table 21, Yap1 mRNA, percent of untreated control, 3-10-3 cEt gapmers targeting SEQ ID NO.: 1 and 2): 9 % UTC

716524 (antisense kA*k[5mC]*kT*dG*dA*dG*dG*dT*dA*dT*dA*dA*d[5mC]*kT*kG*kG) [Compound 716524]
YAP1 (% UT) (Yap1 mRNA [2]; [7]): 59 % UT
YAP1 (% UTC) (Yap1 mRNA [3]; Table 5, A-431 cells, 5,000 cells per well, free uptake, 2,000 nM modified oligonucleotide, approx. 48 hours, RTS4814, normalized to RIBOGREEN, Yap1 mRNA relative to untreated control cells): 35 % UTC

1076453 (kG*kT*kA*dA*dT*dA*dT*dT*dG*d[5mC]*dA*dA*dT*k[5mC]*kT*kG) [Compound 1076453]
YAP1 (% UT) (Yap1 mRNA [2]; [6]): 7 % UT
YAP1 (% UTC) (Yap1 mRNA [3]; Table 19, A-431 cells, 5,000 cells per well, free uptake, 2,000 nM modified oligonucleotide, approx. 48 hours, RTS4814, normalized to RIBOGREEN, Yap1 mRNA as percent of untreated control): 1 % UTC

1074728 (antisense kT*kG*kA*dG*dG*dT*dA*dT*dA*dA*d[5mC]*dT*dG*kG*kG*k[5mC]) [Compound 1074728]
YAP1 (% UT) (Yap1 mRNA [2]; [7]): 14 % UT
YAP1 (% UTC) (Yap1 mRNA [3]; [8]): 3 % UTC

1074726 (antisense kG*kG*kT*dA*dT*dA*dA*d[5mC]*dT*dG*dG*dG*d[5mC]*kA*kA*kA) [Compound 1074726]
YAP1 (% UT) (Yap1 mRNA [2]; [7]): 23 % UT
YAP1 (% UTC) (Yap1 mRNA [3]; Table 20, Yap1 mRNA, percent of untreated control, 3-10-3 cEt gapmers targeting SEQ ID NO.: 1 and 2): 2 % UTC

1198432 (kT*dA*dA*dT*dA*dT*dT*dG*d[5mC]*dA*dA*kT*e[5mC]*kT*eG*kT; antisense) [Compound 1198432]
YAP1 (% UTC) (Yap1 mRNA [2]; Table 39, SNU-449 cells, 10,000 cells per well, free uptake, 2,000 nM oligonucleotide, approx. 48 hours, RTS36584, normalized to RIBOGREEN, Yap1 mRNA relative to untreated control): 70 % UTC
